Like-named read-outs stand apart in the source and are kept apart here.
[1] = Cohort A: 200mg, cytarabine, Daunorubicin (n=5), Total
[2] = Cohort A: 200mg, cytarabine, Daunorubicin (n=5), grade 1&2
[3] = Cohort A: 200mg, cytarabine, Daunorubicin (n=5), grade 3+
[4] = Cohort B Dose 2: 400mg, Decitabine (n=2), Total
[5] = Cohort B Dose 2: 400mg, Decitabine (n=2), grade 1&2
[6] = Cohort B Dose 2: 400mg, Decitabine (n=2), grade 3+

## C1=C/COCc2cc(ccc2OCCN2CCCC2)Nc2nccc(n2)-c2cccc(c2)COC/1 [Pacritinib, 11-(2-pyrrolidin-1-yl-ethoxy)-14,19-dioxa-5,7,26-triaza-tetracyclo[19.3.1.1(2,6). 1(8,12)]heptacosa-1(25),2(26),3,5,8,10,12(27),16,21,23-decaene]
[1]
  HYPOXIA, patients (%): 2 (40)
  LUNG INFECTION, patients (%): 1 (20)
  LYMPHOCYTE COUNT DECREASED, patients (%): 3 (60)
  MUCOSITIS ORAL, patients (%): 2 (40)
  NAUSEA, patients (%): 3 (60)
  NEUTROPHIL COUNT DECREASED, patients (%): 2 (40)
  PLATELET COUNT DECREASED, patients (%): 5 (100)
  PLEURAL EFFUSION, patients (%): 1 (20)
  PRURITUS, patients (%): 4 (80)
  RASH MACULO-PAPULAR, patients (%): 2 (40)
  RASH, patients (%): 2 (40)
  RESPIRATORY FAILURE, patients (%): 2 (40)
  VOMITING, patients (%): 0
  WHITE BLOOD CELL DECREASED, patients (%): 4 (80)
[2]
  ACTIVATED PARTIAL THROMBOPLASTIN TIME PROLONGED, patients (%): 1 (20)
  ANEMIA, patients (%): 0
  ANOREXIA, patients (%): 0
  CONSTIPATION, patients (%): 0
  DIARRHEA, patients (%): 3 (60)
  DYSPNEA, patients (%): 1 (20)
  EDEMA LIMBS, patients (%): 1 (20)
  ELECTROCARDIOGRAM QT CORRECTED INTERVAL PROLONGED, patients (%): 4 (80)
  FATIGUE, patients (%): 3 (60)
  FEBRILE NEUTROPENIA, patients (%): 0
  HYPERGLYCEMIA, patients (%): 1 (20)
  HYPERTENSION, patients (%): 1 (20)
  HYPOALBUMINEMIA, patients (%): 2 (40)
  HYPOKALEMIA, patients (%): 1 (20)
  HYPOPHOSPHATEMIA, patients (%): 0
  HYPOXIA, patients (%): 0
  LUNG INFECTION, patients (%): 0
  LYMPHOCYTE COUNT DECREASED, patients (%): 1 (20)
  MUCOSITIS ORAL, patients (%): 2 (40)
  NAUSEA, patients (%): 3 (60)
  NEUTROPHIL COUNT DECREASED, patients (%): 0
  PLATELET COUNT DECREASED, patients (%): 0
  PLEURAL EFFUSION, patients (%): 1 (20)
  PRURITUS, patients (%): 4 (80)
  RASH MACULO-PAPULAR, patients (%): 1 (20)
  RASH, patients (%): 2 (40)
  RESPIRATORY FAILURE, patients (%): 0
  VOMITING, patients (%): 0
  WHITE BLOOD CELL DECREASED, patients (%): 0
Cohort A: 200mg, cytarabine, Daunorubicin (n=5), grade 1&2, listed as pacritinib
  ELECTROCARDIOGRAM QT CORRECTED INTERVAL PROLONGED, patients (%): Four
[3]
  ACTIVATED PARTIAL THROMBOPLASTIN TIME PROLONGED, patients (%): 0
  ANEMIA, patients (%): 3 (60)
  ANOREXIA, patients (%): 0
  CONSTIPATION, patients (%): 0
  DIARRHEA, patients (%): 0
  DYSPNEA, patients (%): 0
  EDEMA LIMBS, patients (%): 0
  ELECTROCARDIOGRAM QT CORRECTED INTERVAL PROLONGED, patients (%): 0
  FATIGUE, patients (%): 0
  FEBRILE NEUTROPENIA, patients (%): 3 (60)
  HYPERGLYCEMIA, patients (%): 0
  HYPERTENSION, patients (%): 1 (20)
  HYPOALBUMINEMIA, patients (%): 0
  HYPOKALEMIA, patients (%): 0
  HYPOPHOSPHATEMIA, patients (%): 1 (20)
  HYPOXIA, patients (%): 2 (40)
  LUNG INFECTION, patients (%): 1 (20)
  LYMPHOCYTE COUNT DECREASED, patients (%): 2 (40)
  MUCOSITIS ORAL, patients (%): 0
  NAUSEA, patients (%): 0
  NEUTROPHIL COUNT DECREASED, patients (%): 2 (40)
  PLATELET COUNT DECREASED, patients (%): 5 (100)
  PLEURAL EFFUSION, patients (%): 0
  PRURITUS, patients (%): 0
  RASH MACULO-PAPULAR, patients (%): 1 (20)
  RASH, patients (%): 0
  RESPIRATORY FAILURE, patients (%): 2 (40)
  VOMITING, patients (%): 0
  WHITE BLOOD CELL DECREASED, patients (%): 4 (80)
[4]
  ACTIVATED PARTIAL THROMBOPLASTIN TIME PROLONGED, patients (%): 0
  ANEMIA, patients (%): 2 (100)
  ANOREXIA, patients (%): 0
  CONSTIPATION, patients (%): 1 (50)
  DIARRHEA, patients (%): 0
  DYSPNEA, patients (%): 1 (50)
  EDEMA LIMBS, patients (%): 0
  ELECTROCARDIOGRAM QT CORRECTED INTERVAL PROLONGED, patients (%): 0
  FATIGUE, patients (%): 0
  FEBRILE NEUTROPENIA, patients (%): 0
  HYPERGLYCEMIA, patients (%): 1 (50)
  HYPERTENSION, patients (%): 1 (50)
  HYPOALBUMINEMIA, patients (%): 0
  HYPOKALEMIA, patients (%): 1 (50)
  HYPOPHOSPHATEMIA, patients (%): 0
  HYPOXIA, patients (%): 0
  LUNG INFECTION, patients (%): 0
  LYMPHOCYTE COUNT DECREASED, patients (%): 1 (50)
  MUCOSITIS ORAL, patients (%): 0
  NAUSEA, patients (%): 1 (50)
  NEUTROPHIL COUNT DECREASED, patients (%): 1 (50)
  PLATELET COUNT DECREASED, patients (%): 1 (50)
  PLEURAL EFFUSION, patients (%): 0
  PRURITUS, patients (%): 0
  RASH MACULO-PAPULAR, patients (%): 0
  RASH, patients (%): 0
  RESPIRATORY FAILURE, patients (%): 0
  VOMITING, patients (%): 1 (50)
  WHITE BLOOD CELL DECREASED, patients (%): 1 (50)
[5]
  ACTIVATED PARTIAL THROMBOPLASTIN TIME PROLONGED, patients (%): 0
  ANEMIA, patients (%): 1 (50)
  ANOREXIA, patients (%): 0
  CONSTIPATION, patients (%): 1 (50)
  DIARRHEA, patients (%): 0
  DYSPNEA, patients (%): 1 (50)
  EDEMA LIMBS, patients (%): 0
  ELECTROCARDIOGRAM QT CORRECTED INTERVAL PROLONGED, patients (%): 0
  FATIGUE, patients (%): 0
  FEBRILE NEUTROPENIA, patients (%): 0
  HYPERGLYCEMIA, patients (%): 1 (50)
  HYPERTENSION, patients (%): 1 (50)
  HYPOALBUMINEMIA, patients (%): 0
  HYPOKALEMIA, patients (%): 0
  HYPOPHOSPHATEMIA, patients (%): 0
  HYPOXIA, patients (%): 0
  LUNG INFECTION, patients (%): 0
  LYMPHOCYTE COUNT DECREASED, patients (%): 0
  MUCOSITIS ORAL, patients (%): 0
  NAUSEA, patients (%): 0
  NEUTROPHIL COUNT DECREASED, patients (%): 0
  PLATELET COUNT DECREASED, patients (%): 0
  PLEURAL EFFUSION, patients (%): 0
  PRURITUS, patients (%): 0
  RASH MACULO-PAPULAR, patients (%): 0
  RASH, patients (%): 0
  RESPIRATORY FAILURE, patients (%): 0
  VOMITING, patients (%): 1 (50)
  WHITE BLOOD CELL DECREASED, patients (%): 0
[6]
  ACTIVATED PARTIAL THROMBOPLASTIN TIME PROLONGED, patients (%): 0
  ANEMIA, patients (%): 1 (50)
  ANOREXIA, patients (%): 0
  CONSTIPATION, patients (%): 0
  DIARRHEA, patients (%): 0
  DYSPNEA, patients (%): 0
  EDEMA LIMBS, patients (%): 0
  ELECTROCARDIOGRAM QT CORRECTED INTERVAL PROLONGED, patients (%): 0
  FATIGUE, patients (%): 0
  FEBRILE NEUTROPENIA, patients (%): 0
  HYPERGLYCEMIA, patients (%): 0
